Data as given in patent US9938250B2, “Antifibrotic effects of oxetanyl sulfoxides” (University of Pittsburgh—Of the Commonwealth System of …, priority 2015, dated 2018).
Entries after “also recorded” stand apart in the source; their conditions may differ.

Assays:
[1] = discussion, comparison of DMSO with MMS-350; cited from earlier work
[2] = system: primary human fibroblasts; test: TGFβ-induced fibrotic markers in primary human lung fibroblasts, immunoblotting; assay type: cell-based
Protocol: All tissues were obtained under a protocol approved by the Institutional Review Board of the University of Pittsburgh and with written consent. Primary human fibroblasts were cultured from the lung tissues of normal donors and patients undergoing lung transplantation. Fibroblasts were grown in Dulbecco's modified Eagle's medium (DMEM) supplemented with 10% fetal bovine serum (FBS), 100 U/mL penicillin, […] streptomycin and […] amphotericin B, and maintained at 37° C. in 5% CO2 humidified incubator. Three strains of normal primary human fibroblasts were plated on 6-well plates at a seeding density of 2.5×10^5 cells per well. Cells were serum starved for 6-16 h and treated with vehicle, TGFβ (10 ng/mL), MMS-350 (0.5 mg/mL), or TGFβ+MMS-350. Experiments using KRL507-031 were performed similarly. The cell lysates and culture supernatants were harvested 72 h after treatment and analyzed by immunoblotting.
Fibroblasts were rinsed with 1× PBS, scraped into 100 μL of 2×-sodium dodecyl sulfate (SDS) sample buffer, and boiled for 5 min. Equal protein amounts of cell lysates or supernatants were resolved on 10-12% sodium dodecyl sulfate polyacrylamide (SDS-PAGE) gels. Proteins were transferred to 0.2 μm nitrocellulose membranes (Whatman, Germany) and blocked with 5% nonfat dry milk in TBS-Tween 20 for 1 h at room temperature. Membranes were incubated with primary antibodies overnight at 4° C. followed by horseradish peroxidase-conjugated secondary antibodies for 1 h at room temperature. Signals were detected with enhanced chemiluminescence (Perkin Elmer Life Sciences, Inc., Boston, Mass.) and imaged with the FluorChem E digital imaging system from Protein Simple (Santa Clara, Calif.). Results were analyzed using the accompanying software Alphaview.

C57BL/6J mice = test: Bleomycin-induced pulmonary fibrosis in mice; assay type: in vivo
Protocol: Pulmonary fibrosis was induced in male 6- to 8-week-old C57BL/6J mice by intratracheal administration of 1 mg/kg of Bleomycin (Enzo) in a total volume of 50 uL. Mice were orally administered either 200 uL of PBS or MMS-350 (2%) on a daily basis and lungs were harvested after 5 and 14 days. Right lungs were fixed in 10% neutralized formalin and paraffin embedded. Left lungs were frozen for hydroxyproline assay and total RNA extraction.
Six-micrometer sections of paraffin-embedded mouse lung tissues were stained with H&E and images were taken on an Olympus Provis III microscope (Olympus America Inc.) with identical settings.
Hydroxyproline assay. The hydroxyproline content of mouse lung tissues obtained on day 14 was measured as described (41) and adjusted by lung weight.
Frozen mouse lung tissues obtained on day 5 were placed in 1.5 mL of RNase free Red Bead Lysis Kit tubes (Next Advance) containing 500 uL of TRIzol® Reagent (Life Technologies) and homogenized using BBX24 Bullet Blender® (Next Advance). Total RNA was extracted and purified with RNeasy Mini Kit (Qiagen). Reverse transcription was performed with SuperScript II (Invitrogen) followed by quantitative polymerase chain reaction (PCR) amplification with the TaqMan method (ABI Prism 7300; Applied Biosystems). Premixed PCR primers and TaqMan probes for mouse collagen 1A2 and GAPDH were obtained from Applied Biosystems. Gene expression levels were normalized to GAPDH and compared with the 2^−ΔΔCt method.

[3] = Aqueous solubility, statement only; assay type: physicochemical
experimental mice = conditions: cited from earlier work
[4] = system: endothelial and alveolar type II cells; conditions: cells cultured from lung tissues of mice following thoracic irradiation; Kalash et al In vivo 2013; cited from earlier work
[5] = TGFβ 10 ng/mL + MMS-350 0.5 mg/mL vs TGFβ1 alone, 72 h

Row | SMILES | log P (lipophilicity) [1] | CTGF secreted protein [2, 5] | IGFBP3 (BP3) secreted protein [2, 5] | collagen 1α1 (Col1) protein [2, 5] | fibronectin (FN) protein [2, 5] | α-SMA protein (marker of fibroblast activation) [2, 5] | anti-fibrotic activity on delayed addition ([2]; compound added 30 min to 6 h after TGFβ) | Collagen α2I mRNA levels in lung (C57BL/6J mice; MMS-350 (2%) oral daily, day 5) | hydroxyproline levels in lung (C57BL/6J mice; MMS-350 (2%) oral daily, day 14) | lung fibrosis, histology (H&E) (C57BL/6J mice; bleomycin 1 mg/kg intratracheal, MMS-350 (2%) 200 uL oral daily, day 14) | overall survival (C57BL/6J mice; bleomycin + MMS-350, bleomycin-treated mice 62.5%) | toxicity (C57BL/6J mice; given orally) | weight loss (C57BL/6J mice; vs mice treated with bleomycin alone, data not shown) | aqueous solubility [3] | mitigation of ionizing irradiation (experimental mice; Goff et al 2013) | radiation-induced pulmonary fibrosis (experimental mice; Kalash et al Radiat Res 2013) | survival of irradiated mice (experimental mice; Kalash et al Radiat Res 2013) | pro-fibrotic gene expression [4]
1 | C[S+](C)[O-] [DMSO, dimethyl sulfoxide, reference compound] | -1.4 | – | – | – | – | – | – | – | – | – | – | – | – | – | – | – | – | –
2 | CC1(C[S+]([O-])CC2(C)COC2)COC1 [MMS-350, 3,3′-Sulfinylbis(methylene)bis(3-methyloxetane)] | −0.7 | significantly decreased | significantly decreased | significantly decreased | significantly decreased | significantly decreased | profound anti-fibrotic activity | reduced | significant reduction | ameliorated fibrosis histologically | 87.5% | no toxicity | less weight loss | exquisite aqueous solubility; also recorded: exceptionally high aqueous solubility | mitigator of ionizing irradiation | ameliorate radiation-induced pulmonary fibrosis | increase survival | reduce pro-fibrotic gene expression
